According to patent US8148391B2 (Cephalon, Inc., priority 2006, dated 2012):
Where two headings read alike, the source gives them in different places. Blank lines part the entries; values can stand above or below the compound they belong to.

Tests used:
[1] = biological target: T1, baculovirus-expressed ALK (Homo sapiens, UniProt Q9UM73); test: ALK Kinase Assay (ELISA-type, time-resolved fluorescence); type: biochemical
T1 construct: host or cells: baculovirus expression system
Outline: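 Plates coated with phospholipase C-γ substrate (10 μg/mL in TBS); reaction started with 30 ng/ml ALK and run 15 min at 37° C. Phosphorylated substrate detected with Eu-N1-labeled PT66 antibody. IC50 from sigmoidal variable-slope fit of percent inhibition vs log concentration.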

[2] = biological target: T2, c-Met (cytoplasmic domain) (Homo sapiens, UniProt P08581); test: c-Met Kinase Assay (same methods as for ALK, with modifications); type: biochemical
T2 construct: 10 ng/mL c-Met (cytoplasmic domain, Invitrogen Corporation #PV3143); purchased Invitrogen Corporation PV3143
Outline: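 Plates were coated with phospholipase C-γ substrate (10 μg/mL) in TBS, and the reaction was started with 10 ng/mL c-Met cytoplasmic domain and run 15 min at 37 °C. Phosphoproduct was detected with Eu-N1-labelled PT66 antibody. IC50 came from a variable-slope sigmoidal fit of percent inhibition vs log concentration.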

[3] = ALK kinase inhibition, 1 μM ATP, read-out: ALK Activity
[4] = c-Met kinase inhibition, 1 μM ATP, read-out: cMet Activity
[5] = 1 μM ATP (Km level), read-out: ALK Activity (ALK Kinase Inhibition, IC50)
[6] = 1 μM ATP (Km level), read-out: cMet Activity (c-Met Kinase Inhibition, IC50)
[7] = ALK kinase inhibition, 1 μM ATP (Km level), read-out: ALK Activity
[8] = c-Met kinase inhibition, 1 μM ATP (Km level), read-out: cMet Activity
[9] = 1 μM ATP (Km level), 30 ng/ml ALK, 37° C., 15 minutes, read-out: ALK Activity (ALK kinase inhibition, IC50 class)
[10] = 1 μM ATP (Km level), 10 ng/mL c-Met, read-out: cMet Activity (c-Met kinase inhibition, IC50 class)

T2 sequence (P08581 956-1390 limits assumed): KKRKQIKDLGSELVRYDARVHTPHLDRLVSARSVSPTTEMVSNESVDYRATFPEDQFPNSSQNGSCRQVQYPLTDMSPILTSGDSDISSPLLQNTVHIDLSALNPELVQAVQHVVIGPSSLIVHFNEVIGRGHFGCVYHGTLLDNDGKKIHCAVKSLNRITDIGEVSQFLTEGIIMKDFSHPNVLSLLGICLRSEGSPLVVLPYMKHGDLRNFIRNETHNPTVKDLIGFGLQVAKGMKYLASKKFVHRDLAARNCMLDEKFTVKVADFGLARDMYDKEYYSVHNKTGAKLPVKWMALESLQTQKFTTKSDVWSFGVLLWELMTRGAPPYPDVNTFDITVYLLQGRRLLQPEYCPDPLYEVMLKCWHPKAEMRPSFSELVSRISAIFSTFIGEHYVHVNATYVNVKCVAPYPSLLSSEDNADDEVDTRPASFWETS
T1 sequence (Q9UM73 19-1620): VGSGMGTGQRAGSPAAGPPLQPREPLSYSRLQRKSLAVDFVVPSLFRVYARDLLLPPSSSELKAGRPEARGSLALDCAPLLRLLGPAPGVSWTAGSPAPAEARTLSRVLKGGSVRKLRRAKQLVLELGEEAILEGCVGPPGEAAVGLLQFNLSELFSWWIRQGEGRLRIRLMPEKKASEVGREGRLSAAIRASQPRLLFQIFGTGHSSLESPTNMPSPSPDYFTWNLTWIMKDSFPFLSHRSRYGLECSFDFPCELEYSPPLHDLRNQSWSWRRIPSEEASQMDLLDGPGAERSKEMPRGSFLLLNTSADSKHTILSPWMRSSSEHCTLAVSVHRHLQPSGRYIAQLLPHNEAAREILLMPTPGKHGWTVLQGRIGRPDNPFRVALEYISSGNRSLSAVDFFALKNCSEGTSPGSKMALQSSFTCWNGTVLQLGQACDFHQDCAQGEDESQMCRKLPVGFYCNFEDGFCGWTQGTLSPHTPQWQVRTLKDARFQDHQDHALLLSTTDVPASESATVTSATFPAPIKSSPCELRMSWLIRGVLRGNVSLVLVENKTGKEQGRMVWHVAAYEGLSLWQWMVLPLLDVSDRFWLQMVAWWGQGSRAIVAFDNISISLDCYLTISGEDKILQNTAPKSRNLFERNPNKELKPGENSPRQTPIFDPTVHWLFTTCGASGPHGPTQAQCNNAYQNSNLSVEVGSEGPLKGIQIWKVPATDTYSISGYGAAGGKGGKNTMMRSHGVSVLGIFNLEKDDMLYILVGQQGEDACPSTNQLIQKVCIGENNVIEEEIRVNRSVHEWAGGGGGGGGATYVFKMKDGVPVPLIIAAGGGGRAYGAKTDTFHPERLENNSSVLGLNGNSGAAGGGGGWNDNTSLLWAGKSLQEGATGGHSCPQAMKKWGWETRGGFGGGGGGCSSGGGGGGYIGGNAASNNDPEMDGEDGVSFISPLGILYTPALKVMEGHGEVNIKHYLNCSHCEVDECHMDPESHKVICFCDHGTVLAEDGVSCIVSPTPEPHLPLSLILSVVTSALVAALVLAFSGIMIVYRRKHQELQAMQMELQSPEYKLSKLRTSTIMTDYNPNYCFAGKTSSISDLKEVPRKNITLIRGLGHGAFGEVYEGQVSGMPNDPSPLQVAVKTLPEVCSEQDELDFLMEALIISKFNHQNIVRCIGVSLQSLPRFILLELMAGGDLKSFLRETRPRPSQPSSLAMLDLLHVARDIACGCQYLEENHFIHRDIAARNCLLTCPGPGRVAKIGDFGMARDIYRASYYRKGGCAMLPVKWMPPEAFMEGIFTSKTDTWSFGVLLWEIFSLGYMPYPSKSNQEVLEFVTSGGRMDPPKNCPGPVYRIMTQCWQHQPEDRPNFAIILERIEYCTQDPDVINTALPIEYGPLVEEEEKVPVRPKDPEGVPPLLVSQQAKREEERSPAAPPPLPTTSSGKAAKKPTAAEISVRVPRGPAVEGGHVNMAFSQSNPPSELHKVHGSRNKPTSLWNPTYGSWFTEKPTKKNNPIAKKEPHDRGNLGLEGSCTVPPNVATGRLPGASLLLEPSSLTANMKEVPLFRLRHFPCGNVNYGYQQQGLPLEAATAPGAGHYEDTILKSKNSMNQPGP

IC50 [1, 9]: 0.1 to 1 µM
IC50 [2, 10]: 1 to 10 µM
Compound: COCCN1CCc2ccc(Nc3ncc(Cl)c(Nc4c(F)cccc4OCCCOCc4ccccc4)n3)cc2CC1 [Example 1284, N(4)-[2-(3-Benzyloxy-propoxy)-6-fluoro-phenyl]-5-chloro-N(2)-[3-(2-methoxy-ethyl)-2,3,4,5-tetrahydro-1H-3-benzazepin-7-yl]-pyrimidine-2,4-diamine]

IC50 [1, 5]: 0.1 to 1 µM
IC50 [2, 6]: > 10 µM
Compound: CC1(C)CCC(=O)Nc2ccc(Nc3ncc(Cl)c(Nc4ccccc4-c4ncccc4C(F)(F)F)n3)cc21 [Example 991, 7-{5-Chloro-4-[2-(3-trifluoromethyl-pyridin-2-yl)-phenylamino]-pyrimidin-2-ylamino}-5,5-dimethyl-1,3,4,5-tetrahydro-benzo[b]azepin-2-one]

IC50 [1, 3]: 0.1 to 1 µM
IC50 [2, 4]: < 0.1 µM
Compound: CCN1CCNc2cc(Nc3ncc(Cl)c(Nc4c(F)cccc4C(=O)NC)n3)ccc2C1=O [Example 1454, 2-[5-Chloro-2-(4-ethyl-5-oxo-2,3,4,5-tetrahydro-1H-benzo[e][1,4]diazepin-8-ylamino)-pyrimidin-4-ylamino]-3-fluoro-N-methyl-benzamide]

IC50 [1, 5]: < 0.1 µM
IC50 [2, 6]: 0.1 to 1 µM
Compound: COc1ccc(Nc2nc(Nc3ccc4c(c3)CCN(CC3COCCO3)CC4)ncc2Cl)c(-n2cccn2)c1 (stereo not drawn) [Example 642, 5-Chloro-N*2*-(3-[1,4]dioxan-2-ylmethyl-2,3,4,5-tetrahydro-1H-benzo[d]azepin-7-yl)-N*4*-(4-methoxy-2-pyrazol-1-yl-phenyl)-pyrimidine-2,4-diamine]

IC50 [1, 5]: < 0.1 µM
IC50 [2, 6]: > 10 µM
Compound: COc1cc2c(cc1Nc1ncc(Cl)c(Nc3ccccc3-c3ncccc3C)n1)CCN(CC(=O)N(C)C)CC2 [Example 1000, 2-(7-{5-Chloro-4-[2-(3-methyl-pyridin-2-yl)-phenylamino]-pyrimidin-2-ylamino}-8-methoxy-1,2,4,5-tetrahydro-benzo[d]azepin-3-yl)-N,N-dimethyl-acetamide]

IC50 [1, 5]: < 0.1 µM
IC50 [2, 6]: 1 to 10 µM
Compound: CNC(=O)c1ccccc1Nc1nc(Nc2cc3c(cc2OC)CCN(CC(F)F)CC3)ncc1Cl [Example 766, 2-{5-Chloro-2-[3-(2,2-difluoro-ethyl)-8-methoxy-2,3,4,5-tetrahydro-1H-benzo[d]azepin-7-ylamino]-pyrimidin-4-ylamino}-N-methyl-benzamide]

IC50 [1, 9]: < 0.1 µM
IC50 [2, 10]: 0.1 to 1 µM
Compound: CCCNC(=O)c1ccccc1Nc1nc(Nc2ccc3c(c2)C(C)(C)CCC(=O)N3)ncc1Cl [Example 1022, 2-[5-Chloro-2-(5,5-dimethyl-2-oxo-2,3,4,5-tetrahydro-1H-benzo[b]azepin-7-ylamino)-pyrimidin-4-ylamino]-N-propyl-benzamide]

The remaining lines, values behind:

Compound: COc1cc2c(cc1Nc1ncc(Cl)c(N[C@H]3[C@@H](C(N)=O)[C@@H]4C=C[C@H]3C4)n1)CCN(CC(C)O)CC2 (stereo partly drawn) [Example 1548, (1S,2S,3R,4R)-3-{5-Chloro-2-[3-(2-hydroxy-propyl)-8-methoxy-2,3,4,5-tetrahydro-1H-3-benzazepin-7-ylamino]-pyrimidin-4-ylamino}-bicyclo[2.2.1]hept-5-ene-2-carboxylic acid amide]
IC50 [1, 3]: < 0.1 µM
IC50 [2, 4]: > 10 µM

Compound: COc1cc2c(cc1Nc1ncc(Cl)c(Nc3ccc(Cl)cc3S(=O)(=O)N(C)C)n1)CCN(CC(=O)N1CCN(C)CC1)CC2 [Example 842, 5-Chloro-2-(5-chloro-2-{8-methoxy-3-[2-(4-methyl-piperazin-1-yl)-2-oxo-ethyl]-2,3,4,5-tetrahydro-1H-benzo[d]azepin-7-ylamino}-pyrimidin-4-ylamino)-N,N-dimethyl-benzenesulfonamide]
IC50 [1, 5]: < 0.1 µM
IC50 [2, 6]: > 10 µM

Compound: COc1cc(N2CCOCC2)ccc1Nc1nc(Nc2ccc3c(c2)CCN(S(C)(=O)=O)CC3)ncc1Cl [Example 320, 5-Chloro-N*2*-(3-methanesulfonyl-2,3,4,5-tetrahydro-1H-benzo[d]azepin-7-yl]-N*4*-(2-methoxy-4-morpholin-4-yl-phenyl)-pyrimidine-2,4-diamine]
IC50 [1, 7]: < 0.1 µM
IC50 [2, 8]: 1 to 10 µM

Compound: COCCN1CCc2ccc(Nc3ncc(Cl)c(Nc4c(F)cc(F)cc4N4CCOCC4)n3)cc2CC1 [Example 1287, 5-Chloro-N(4)-(2,4-difluoro-6-morpholin-4-yl-phenyl)-N(2)-[3-(2-methoxy-ethyl)-2,3,4,5-tetrahydro-1H-3-benzazepin-7-yl]-pyrimidine-2,4-diamine]
IC50 [1, 9]: 0.1 to 1 µM
IC50 [2, 10]: 1 to 10 µM

Compound: CNC(=O)c1cc(N(C)C)ccc1Nc1nc(Nc2cc3c(cc2OC)CCN(CC(=O)N(C)C)CC3)ncc1Cl [Example 1185, 2-[5-Chloro-2-(3-dimethylcarbamoylmethyl-8-methoxy-2,3,4,5-tetrahydro-1H-benzo[d]azepin-7-ylamino)-pyrimidin-4-ylamino]-5-dimethylamino-N-methyl-benzamide]
IC50 [1, 9]: < 0.1 µM
IC50 [2, 10]: > 10 µM

Compound: CNC(=O)CN1CCc2cc(Nc3ncc(Cl)c(N[C@H]4[C@@H](C(N)=O)[C@@H]5C=C[C@H]4C5)n3)c(OC)cc2CC1 [Example 1124, (1S,2S,3R,4R)-3-[5-Chloro-2-(8-methoxy-3-methylcarbamoylmethyl-2,3,4,5-tetrahydro-1H-benzo[d]azepin-7-ylamino)-pyrimidin-4-ylamino]-bicyclo[2.2.1]hept-5-ene-2-carboxylic acid amide]
IC50 [1, 9]: < 0.1 µM
IC50 [2, 10]: > 10 µM

Compound: COCCN1CCc2ccc(Nc3ncc(Cl)c(Nc4c(C)cccc4C(=O)NCC#N)n3)cc2CC1 [Example 1040, 2-{5-Chloro-2-[3-(2-methoxy-ethyl)-2,3,4,5-tetrahydro-1H-benzo[d]azepin-7-ylamino]-pyrimidin-4-ylamino}-N-cyanomethyl-3-methyl-benzamide]
IC50 [1, 9]: 0.1 to 1 µM
IC50 [2, 10]: 0.1 to 1 µM

Compound: CNC(=O)c1ccc2c(c1Nc1nc(Nc3ccc4c(c3)CCCC(=O)N4C)ncc1Cl)OCO2 [Example 1479, 4-[5-Chloro-2-(1-methyl-2-oxo-2,3,4,5-tetrahydro-1H-benzo[b]azepin-7-ylamino)-pyrimidin-4-ylamino]-benzo[1,3]dioxole-5-carboxylic acid methyl amide]
IC50 [1, 3]: 0.1 to 1 µM
IC50 [2, 4]: 1 to 10 µM

Compound: COCCN1CCc2ccc(Nc3ncc(Cl)c(N[C@@H]4CCCC[C@H]4NS(=O)(=O)CC(F)(F)F)n3)cc2CC1 [Example 452, 2,2,2-Trifluoro-ethanesulfonic acid ((1R,2R)-2-{5-chloro-2-[3-(2-methoxy-ethyl)-2,3,4,5-tetrahydro-1H-benzo[d]azepin-7-ylamino]-pyrimidin-4-ylamino}-cyclohexyl)-amide]
IC50 [1, 7]: < 0.1 µM
IC50 [2, 8]: 1 to 10 µM

Compound: CCN1C(=O)CCCc2cc(Nc3ncc(Cl)c(N[C@@H]4CCCC[C@H]4NS(C)(=O)=O)n3)c(OC)cc21 [Example 130, N-{(1R,2R)-2-[5-Chloro-2-(1-ethyl-8-methoxy-2-oxo-2,3,4,5-tetrahydro-1H-benzo[b]azepin-7-ylamino)-pyrimidin-4-ylamino]-cyclohexyl}-methanesulfonamide]
IC50 [1, 7]: < 0.1 µM
IC50 [2, 8]: > 10 µM

Compound: C=CCOc1cc(N2CCOCC2)cc(F)c1Nc1nc(Nc2ccc3c(c2)CCOC(=O)N3C)ncc1Cl [Example 1700, 2-[4-(2-Allyloxy-6-fluoro-4-morpholin-4-yl-phenylamino)-5-chloro-pyrimidin-2-ylamino]-5-methyl-8,9-dihydro-5H-7-oxa-5-aza-benzocyclohepten-6-one]
IC50 [1, 3]: < 0.1 µM
IC50 [2, 4]: 1 to 10 µM
